Among the data in patent US12331033B2, “Inhibitors of SARM1” (Disarm Therapeutics, Inc., priority 2020, dated 2025) are IC50 values, retold here.

One may read the IC50 as the concentration that inhibits the measured activity by half. A low value points to greater potency in that assay.

The target of this assay is SARM1 (ARM-SAM-TIR) (Homo sapiens (Human), UniProt Q6SZW1). Kind of assay: ARM-SAM-TIR SARM1 IC50 assay (NADase activity, NAD+ cleavage, RapidFire MS). The format is biochemical. Particulars: ARM-SAM-TIR lysate 5 μg/mL, 2 h pre-incubation, 5 μM NAD+, 2 hr room temperature. As to the method: This Example describes an assay of ARM-SAM-TIR NADase activity and use of this assay to measure the efficacy of compounds of Formula I or Formula I′ to block SARM1 mediated NAD+ cleavage. This assay was optimized in such a way as to characterize the efficacy of the compounds in Formula I or Formula I′ to inhibit SARM1 activity and to calculate an IC50 value for each compound. This assay makes use of full length SARM1, which encompasses the ARM, SAM and TIR domains.
Sequence of SARM1 (ARM-SAM-TIR) (Q6SZW1 other isoform, or with tags, fused parts or gaps): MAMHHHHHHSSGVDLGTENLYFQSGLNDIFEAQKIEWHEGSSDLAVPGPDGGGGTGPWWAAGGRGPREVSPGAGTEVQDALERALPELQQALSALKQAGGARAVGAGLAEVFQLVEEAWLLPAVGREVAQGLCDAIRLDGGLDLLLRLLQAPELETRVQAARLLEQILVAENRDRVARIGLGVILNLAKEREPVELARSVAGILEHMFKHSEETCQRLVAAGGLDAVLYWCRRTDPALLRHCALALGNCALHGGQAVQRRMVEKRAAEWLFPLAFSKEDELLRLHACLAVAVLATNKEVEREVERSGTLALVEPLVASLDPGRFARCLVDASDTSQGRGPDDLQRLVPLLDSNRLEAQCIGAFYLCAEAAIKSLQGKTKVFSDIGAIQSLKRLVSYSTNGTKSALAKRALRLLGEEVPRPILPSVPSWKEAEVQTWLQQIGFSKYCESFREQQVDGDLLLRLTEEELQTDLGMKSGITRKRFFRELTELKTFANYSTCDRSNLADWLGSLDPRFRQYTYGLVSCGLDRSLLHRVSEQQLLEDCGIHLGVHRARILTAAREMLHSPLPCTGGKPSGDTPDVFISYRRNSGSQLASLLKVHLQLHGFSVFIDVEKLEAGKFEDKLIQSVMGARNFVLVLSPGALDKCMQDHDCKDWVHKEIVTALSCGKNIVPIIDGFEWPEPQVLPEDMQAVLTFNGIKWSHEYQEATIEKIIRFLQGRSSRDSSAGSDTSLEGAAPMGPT
NRK1-HEK293T cells were seeded onto 150 cm^2 plates at 20×10^6 cells per plate. The next day, the cells were transfected with 15 μg ARM-SAM-TIR expression plasmid, SEQ ID NO: 1.
The cultures were supplemented with 1 mM NR at time of transfection to minimize toxicity from ARM-SAM-TIR overexpression. Forty-eight hours after transfection, cells were harvested, pelleted by centrifugation at 1,000 rpm (Sorvall ST 16R centrifuge, Thermo Fisher), and washed once with cold PBS (0.01 M phosphate buffered saline NaCl 0.138 M; KCl 0.0027 M; pH 7.4). The cells were resuspended in PBS with protease inhibitors (cOmplete™ protease inhibitor cocktail, Roche product #11873580001) and cell lysates were prepared by sonication (Branson Sonifer 450, output=3, 20 episodes of stroke). The lysates were centrifuged (12,000×g for 10 min at 4° C.) to remove cell debris and the supernatants (containing ARM-SAM-TIR protein) were stored at −80° C. for later use in the in vitro ARM-SAM-TIR NADase assay (see below). Protein concentration was determined by the Bicinchoninic (BCA) method and used to normalize lysate concentrations.
The enzymatic assay was performed in a 384-well polypropylene plate in Dulbecco's PBS buffer in a final assay volume of 20 μL. ARM-SAM-TIR lysate with a final concentration of 5 μg/mL was pre-incubated with the respective compound at 1% DMSO final assay concentration over 2 h at room temperature. The reaction was initiated by addition of 5 μM final assay concentration of NAD+ as substrate. After a 2 hr room temperature incubation, the reaction was terminated with 40 μL of stop solution of 7.5% trichloroactetic acid in acetonitrile. The NAD+ and ADPR concentrations were analyzed by a RapidFire High Throughput Mass Spectrometry System (Agilent Technologies, Santa Clara, Calif.) using an API4000 triple quadrupole mass spectrometer (AB Sciex Framingham, Mass.).
As to `O=C(CCc1ccc(Cl)nc1)Nc1nc(-c2ccncc2)c[nH]1` [Example 1], the IC50 was < 5 µM.
Turning to `O=C(CCc1ccc(C(F)(F)F)s1)Nc1cc(-c2ccncc2)n[nH]1` [Example 2], the 50% inhibitory concentration (IC50) was < 5 µM.
The value for `N[C@@H](Cc1ccc(Cl)cc1)C(=O)Nc1cc(-c2ccncc2)n[nH]1` [Example 3] was < 5 µM; that for `O=C(CNc1ccc(Cl)cc1)Nc1cc(-c2ccncc2)n[nH]1` [Example 4] was < 5 µM.
In the case of `CC(C)(C)OC(=O)N(CC(=O)Nc1cc(-c2ccncc2)n[nH]1)c1ccc(Cl)cc1` [Example 5], the half-maximal inhibitory concentration (IC50) was < 5 µM.
Turning to `CN(Cc1ccc(Cl)cc1)C(=O)Nc1cc(-c2ccncc2)n[nH]1` [Example 6], the IC50 is < 5 µM.
Take `O=C(NCc1ccc(Cl)cc1)Nc1cc(-c2ccncc2)n[nH]1` [Example 7]: the IC50 was < 5 µM.
For `[2H]C([2H])(C(=O)Nc1nnc(-c2ccncc2)[nH]1)C([2H])([2H])c1ccc(Cl)nc1` [Example 8], the IC50 is < 5 µM.
With `[2H]C([2H])(C(=O)Nc1cc(-c2ccncc2)n[nH]1)C([2H])([2H])c1ccc(Cl)nc1` [Example 9], the 50% inhibitory concentration (IC50) was < 5 µM.
The value for `O=C(CCc1ccc(Cl)c(Br)c1)Nc1nnc(-c2ccncc2)[nH]1` [Example 10] was < 5 µM.
The value for `O=C(CCc1ccc(Cl)cc1)Nc1nnc(-c2ccncc2F)[nH]1` [Example 11] was < 5 µM.
The value for `O=C(CCc1ccc(Cl)s1)Nc1nnc(-c2ccnnc2)[nH]1` [Example 12] was < 5 µM; that for `O=C(CCc1ccc(Cl)c(F)c1)Nc1nnc(-c2ccnnc2)[nH]1` [Example 13] was < 5 µM.
Consider `O=C(CCc1cccc(F)c1)Nc1cc(-c2ccncc2)n[nH]1` [Example 14], for which the IC50 is < 5 µM.
The value for `O=C(CCc1cccc(F)c1)Nc1nnc(-c2ccncc2)[nH]1` [Example 15] was < 5 µM; that for `O=C(CCc1ccc(F)c(F)c1)Nc1nnc(-c2ccncc2)[nH]1` [Example 16] was < 5 µM.
`O=C(CCc1ccc(F)c(F)c1)Nc1cc(-c2ccncc2)n[nH]1` [Example 17]: the IC50 is < 5 µM.
Turning to `Cc1c(-c2ccncc2)n[nH]c1NC(=O)CCc1ccc(Cl)cc1` [Example 18], the concentration for half-maximal inhibition (IC50) was < 5 µM.
`O=C(CCc1ccc(Cl)nc1)Nc1cc(-c2ccnnc2)n[nH]1` [Example 19]: the IC50 was < 5 µM.
Take `O=C(CCc1ccc(Cl)cc1)Nc1nc(-c2ccncc2)c[nH]1` [Example 20]: the 50% inhibitory concentration (IC50) was < 5 µM.
Consider `O=C(CCc1ccc(Cl)nc1)Nc1nnc(-c2ccnnc2)[nH]1` [Example 21], for which the IC50 was < 5 µM.
Consider `O=C(Nc1nnc(-c2ccncc2)[nH]1)[C@H]1C[C@H](c2ccc(Cl)cc2)C1` [Example 22], for which the half-maximal inhibitory concentration (IC50) is < 5 µM.
Regarding `O=C(Nc1nnc(-c2ccncc2)[nH]1)[C@H]1C[C@@H](c2ccc(Cl)cc2)C1` [Example 23], the IC50 was < 5 µM.
For `O=C(CCc1ccc(Cl)s1)Nc1cc(-c2ccnnc2)[nH]n1` [Example 24], the 50% inhibitory concentration (IC50) is < 5 µM.
Under `O=C(CCc1ccc(Cl)cc1)Nc1cc(-c2ccncc2F)n[nH]1` [Example 25] stands < 5 µM.
With `O=C(CCc1ccc(Cl)cc1)Nc1cc(-c2ccncn2)n[nH]1` [Example 26], the IC50 is < 5 µM.
With `Cc1c(-c2ccncc2)n[nH]c1NC(=O)CCc1ccc(Cl)nc1` [Example 27], the concentration for half-maximal inhibition (IC50) is < 5 µM.
For the compound `Clc1ccc(OCCNc2nnc(-c3ccncc3)[nH]2)cc1` [Example 28], the IC50 was > 30 µM.
Take `O=C(CC1CCOc2cc(Cl)ccc21)Nc1nnc(-c2ccncc2)[nH]1` (stereo not drawn) [Example 29]: the concentration for half-maximal inhibition (IC50) is < 5 µM.
On to `O=C(CCc1ccc(C(F)(F)F)cc1)Nc1cc(-c2ccnnc2)n[nH]1` [Example 30], for which the IC50 is < 5 µM.
As for `Nc1cc(-c2cc(NC(=O)CCc3ccc(Cl)cc3)[nH]n2)ccn1` [Example 31], the 50% inhibitory concentration (IC50) was < 5 µM.
For the compound `COc1cnccc1-c1nnc(NC(=O)CCc2ccc(Cl)cc2)[nH]1` [Example 32], the half-maximal inhibitory concentration (IC50) was < 5 µM.
Regarding `O=C(CCc1ccc(Cl)cc1)Nc1nnc(-c2ccnc(O)c2)[nH]1` [Example 33], the 50% inhibitory concentration (IC50) was > 30 µM.
For the compound `O=C(CCc1cnc(C(F)(F)F)nc1)Nc1cc(-c2ccncc2)n[nH]1` [Example 34], the 50% inhibitory concentration (IC50) is < 5 µM.
`O=C(Cc1c[nH]c2cc(Cl)ccc12)Nc1nnc(-c2ccncc2)[nH]1` [Example 35] yielded a half-maximal inhibitory concentration (IC50) of 5 to 15 µM.
Regarding `O=C(CCc1ccc(Cl)cc1Cl)Nc1nnc(-c2ccncc2)[nH]1` [Example 36], the concentration for half-maximal inhibition (IC50) was < 5 µM.
`O=C(CCc1ccc(F)cc1)Nc1cc(-c2ccncc2)n[nH]1` [Example 37]: the half-inhibitory concentration (IC50) was < 5 µM.
For the compound `O=C(CN1C(=O)COc2cc(Cl)ccc21)Nc1cc(-c2ccncc2)n[nH]1` [Example 38], the IC50 was > 30 µM.
Turning to `O=C(CN1C(=O)COc2cc(Cl)ccc21)Nc1nnc(-c2ccncc2)[nH]1` [Example 39], the concentration for half-maximal inhibition (IC50) was > 30 µM.
On to `O=C(CCc1ccc(Cl)cc1)Nc1cc(-c2ccnnc2)[nH]n1` [Example 40], for which the IC50 is < 5 µM.
Consider `Clc1ccc(CCCNc2nnc(-c3ccncc3)[nH]2)cc1` [Example 41], for which the half-maximal inhibitory concentration (IC50) was > 30 µM.
The value for `Cc1cc(-c2n[nH]c(NC(=O)CCc3ccc(Cl)cc3)n2)ccn1` [Example 42] was > 30 µM; that for `Nc1cc(-c2n[nH]c(NC(=O)CCc3ccc(Cl)cc3)n2)ccn1` [Example 43] was < 5 µM; that for `CCc1ccc(CCC(=O)Nc2nc(-c3ccncc3)n[nH]2)cc1` [Example 44] was < 5 µM.
With `O=C(CCc1ccc(Cl)c(F)c1)Nc1nnc(-c2ccncc2)[nH]1` [Example 45], the IC50 was < 5 µM.
As for `O=C(CCc1ccc(Cl)cc1F)Nc1nnc(-c2ccncc2)[nH]1` [Example 46], the half-inhibitory concentration (IC50) was < 5 µM.
Consider `N#Cc1ccc(CCC(=O)Nc2cc(-c3ccncc3)n[nH]2)cc1` [Example 47], for which the 50% inhibitory concentration (IC50) is < 5 µM.
Turning to `O=C(CN1CCOc2cc(Cl)ccc21)Nc1nnc(-c2ccncc2)[nH]1` [Example 48], the IC50 is < 5 µM.
For the compound `O=C(CCc1ccc2[nH]ncc2c1)Nc1nnc(-c2ccncc2)[nH]1` [Example 49], the 50% inhibitory concentration (IC50) was > 30 µM.
Regarding `N#Cc1cc(Cl)ccc1CCC(=O)Nc1nnc(-c2ccncc2)[nH]1` [Example 50], the half-maximal inhibitory concentration (IC50) was < 5 µM.
Under `O=C(CCc1ccc(Cl)cc1)Nc1cc(-c2ccncc2)cnc1O` [Example 51] stands > 30 µM.
As for `CN(C)C(Cc1ccccc1)C(=O)Nc1nnc(-c2ccncc2)[nH]1` (stereo not drawn) [Example 52], the 50% inhibitory concentration (IC50) is > 30 µM.
For the compound `O=C(CCc1ccc(Cl)cc1)Nc1nnc(-c2ccnnc2)[nH]1` [Example 53], the IC50 is < 5 µM.
In the case of `O=C(CCc1ccc(Cl)s1)Nc1cc(-c2ccncc2)[nH]n1` [Example 54], the IC50 was < 5 µM.
Under `O=C(CCc1ccc(Cl)nc1)Nc1cc(-c2ccncc2)[nH]n1` [Example 55] stands < 5 µM; under `N[C@@H](Cc1ccc(Cl)cc1)C(=O)Nc1nnc(-c2ccncc2)[nH]1` [Example 56], < 5 µM; under `O=C(CCc1ncc(C(F)(F)F)cn1)Nc1nnc(-c2ccncc2)[nH]1` [Example 57], 15 to 30 µM.
As to `O=C(CC1OCCc2ccccc21)Nc1nnc(-c2ccncc2)[nH]1` (stereo not drawn) [Example 58], the 50% inhibitory concentration (IC50) fell in the range of 5 to 15 µM.
Under `O=C(CCc1ccc(Cl)cc1)Nc1nnc(-c2ccncc2Cl)[nH]1` [Example 59] stands < 5 µM; under `O=C(CCc1ccc(Cl)cc1)Nc1nnc(-c2cncs2)[nH]1` [Example 60], < 5 µM.
On to `O=C(CCc1ccc(Cl)cc1)Nc1nc(-c2ccncc2)ns1` [Example 61], for which the IC50 is < 5 µM.
As to `O=C(CCc1ccc(C(F)(F)F)cc1)Nc1cc(-c2ccncc2)[nH]n1` [Example 62], the concentration for half-maximal inhibition (IC50) is < 5 µM.
Consider `O=C(CC1CCNc2ccccc21)Nc1nnc(-c2ccncc2)[nH]1` (stereo not drawn) [Example 63], for which the IC50 was > 30 µM.
Take `CC(C)(C)OC(=O)N1CCC(CC(=O)Nc2nnc(-c3ccncc3)[nH]2)c2ccccc21` (stereo not drawn) [Example 64]: the half-inhibitory concentration (IC50) is > 30 µM.
For `O=C(Cc1ccc(Cl)cc1)Nc1nnc(-c2ccncc2)[nH]1` [Example 65], the IC50 was < 5 µM.
In the case of `O=C(Nc1nnc(-c2ccncc2)[nH]1)C12CC(c3ccccc3)(C1)C2` [Example 66], the IC50 was < 5 µM.
Turning to `O=C(C[C@@H]1CCc2ccccc21)Nc1nnc(-c2ccncc2)[nH]1` [Example 67], the IC50 was < 5 µM.
The value for `O=C(C[C@H]1CCc2ccccc21)Nc1nnc(-c2ccncc2)[nH]1` [Example 68] was 5 to 15 µM; that for `O=C(CNc1ccccc1)Nc1nnc(-c2ccncc2)[nH]1` [Example 69] was 5 to 15 µM.
